{"source": "patent US20050009929A1", "about": "“Inhibition of the asexual reproduction of fungi” (priority 2001, published 2005)", "test_system": "Aspergillus niger", "experiment": "Effect of farnesol on the sporulation of Aspergillus niger on malt extract agar", "format": "cell-based", "details": "5 days at 25° C.; for Sporulation [%]: evaluated by appearance", "procedure": "Quantities of 100 μl of a cell suspension of Aspergillus niger (1.5·10^7 cells/ml) were plated out onto malt agar extract (Merck) to which farnesol had been added in various quantities of 0; 25; 62.5; 125; 250 and 500 μM."}
{"smiles": "CC(C)=CCCC(C)=CCCC(C)=CCO", "note": "[farnesol]", "values": [{"measurement": "Sporulation [%]", "setting": "farnesol 25 μM in agar", "value": 90, "unit": "%"}, {"measurement": "Sporulation [%]", "setting": "farnesol 62.5 μM in agar", "value": 75, "unit": "%"}, {"measurement": "Sporulation [%]", "setting": "farnesol 125 μM in agar", "value": 50, "unit": "%"}, {"measurement": "Sporulation [%]", "setting": "farnesol 250 μM in agar", "value": 10, "unit": "%"}, {"measurement": "inhibition of sporulation (in words)", "setting": "farnesol 500 μM in agar", "value": "completely suppressed"}, {"measurement": "Sporulation [%]", "setting": "farnesol 500 μM in agar", "value": 0, "unit": "%"}, {"measurement": "inhibition of growth", "setting": "farnesol 25 to 500 μM in agar", "value": "None of the farnesol concentrations used inhibited growth"}]}
